Measured values published in patent US4642314A, “Antiulcer compounds” (Nisshin Flour Milling Co., Ltd., priority 1984, dated 1987).

Columns and labels:
[1] = tested on: mice; experiment: acute toxicity (LD50), intraperitoneal route in mice; type: in vivo
[2] = tested on: acetic acid-induced ulcer; experiment: Acetic acid-induced ulcer (Curative test); type: in vivo, rat (male SD rats); settings: Table 2; rat, 0.05 ml of 15% acetic acid underneath the serosa; lesion area on 14th day
Experimental: (§1) In the case of reserpine-induced ulcer, the assay was performed according to the description in "Arch. Int. Pharmacodym. Ther. 147,113 (1964)", and in the case of acetic acid-induced ulcer, the assay was performed according to the method described in "Jap. J. Pharmac. 19,418 (1969)", by inducing experimental ulcer in rat and evaluating the effect thereon of the compounds tested.
Groups of rats, each consisting of 6 male SD rats weighing 150-200 g were used. The stomach of ether-anesthesized rat was exposed and while taking acre not to injure blood vessels, 0.05 ml of 15% aqueous acetic acid solution was injected underneath the serosa. On the 14th day, the rats were killed with chloroform, the stomach taken out and the area of the infected lesion measured.
The curative ratio was calculated using the above equation: [formula]

[3] = tested on: reserpine-induced ulcer; experiment: Reserpine-induced ulcer (Preventive test); type: in vivo, rat (male SD rats); settings: Table 1; rat, 100 mg/kg oral, 30 min before reserpine 15 mg/kg i.p.; evaluated at 18 h; read-out: Preventive effect (preventive ratio)
Experimental: as §1
Groups of rats, each consisting of 6 male SD rats weighing 150-200 g were used. After 24 hours' fasting, a sample compound was orally administered to the rat at the dose of 100 mg/kg body weight, and 30 minutes after the administration, reserpine was intraperitoneally injected at the dose of 15 mg/kg body weight. Eighteen hours after the administration, the rats were killed with chloroform. The stomach was taken out, and severity of the hemorrhaging lesion was evaluated according to the method as above ("Arch. Int. Pharmacodym. Ther. 147,113 (1964)).
The preventive ratio was calculated using the following equation, [formula] wherein the control animals were intraperitoneally given reserpine only, at the dose of 15 mg/kg body weight.

[4] = acute toxicity (LD50), intraperitoneal route in mice; type: in vivo; settings: mouse, in vivo, ip

Compound | LD50 ([1]; Table 2) [mg/kg] | Curative effect (curative ratio) [2] | inhibition in vivo at 100 mg/kg [3] [%] | LD50 ([4]; Table 2) [mg/kg] | LD50 ([1]; Table 1) [mg/kg] | LD50 ([4]; Table 1) [mg/kg]
CC(C)=CCCC(C)=CCCC(C)=CCCC(C)=CCCC(C)=CCCC(C)=CCCC(C)=CCCC(C)=CCCC(C)=CCCC(C)=CCCC(=O)OCC=C(C)CCC=C(C)CCC=C(C)CCC=C(C)CCC=C(C)CCC=C(C)CCC=C(C)CCC=C(C)CCC=C(C)CCC=C(C)C [Decaprenyl decaprenylacetate] | > 5000 | + (10%-25%) |  |  |  | 
CC(C)=CCCC(C)=CCCC(C)=CCCC(C)=CCCC(C)=CCCC(C)=CCCC(C)=CCCC(C)=CCCC(C)=CCCC(C)=CCCC(=O)OCC=C(C)CCCC(C)CCCC(C)CCCC(C)C (stereo not drawn) [Phytyl decaprenylacetate] |  | + (10%-25%) | 10 to 40 | > 4000 | > 4000 | 
CC(C)=CCCC(C)=CCCC(C)=CCCC(C)=CCCC(C)=CCCC(C)=CCCC(C)=CCCC(C)=CCCC(C)=CCCC(C)=CCOC(=O)CCC=C(C)CCCC(C)CCCC(C)CCCC(C)C (stereo not drawn) [Decaprenyl phytylacetate] |  | ++ (25%-40%) | 40 to 60 | > 5000 | > 5000 | 
CCCCCCCC/C=C\CCCCCCCC(=O)OCC=C(C)CCC=C(C)CCC=C(C)CCC=C(C)CCC=C(C)CCC=C(C)CCC=C(C)CCC=C(C)CCC=C(C)CCC=C(C)C [Decaprenyl oleate] |  | ++ (25%-40%) | 40 to 60 | > 5000 | > 5000 | 
C/C(=C\CCC(=O)O)CCC[C@H](C)CCC[C@H](C)CCCC(C)C [Phytylacetic acid] |  | + (10%-25%) | 10 to 40 | > 5000 | > 5000 | 
CC(=O)OCC=C(C)CCC=C(C)CCC=C(C)CCC=C(C)CCC=C(C)CCC=C(C)CCC=C(C)CCC=C(C)CCC=C(C)CCC=C(C)C [Decaprenyl acetate] |  | + (10%-25%) | 40 to 60 | > 5000 | > 5000 | 
CC(=O)OC/C=C(\C)CCC[C@H](C)CCC[C@H](C)CCCC(C)C [Phytyl acetate] |  | + (10%-25%) | 40 to 60 | > 5000 | > 5000 | 
CC(C)=CCC/C(C)=C/CC/C(C)=C/CC/C(C)=C/CC/C(C)=C/CC/C(C)=C/CC/C(C)=C/CC/C(C)=C/CC/C(C)=C/CO [Solanesol] | > 4000 | ++ (25%-40%) | 10 to 40 |  |  | > 4000
CCCCCCCC/C=C\CCCCCCCC(=O)OC/C=C(\C)CCC[C@H](C)CCC[C@H](C)CCCC(C)C [Phytyl oleate] |  | +++ (40%-) | > 60 | > 4000 | > 4000 | 
CCCCCCCCCCCC(=O)OC/C=C(\C)CCC[C@H](C)CCC[C@H](C)CCCC(C)C [Phytyl laurate] |  |  | 40 to 60 |  |  | > 5000
CC(C)=CCCC(C)=CCCC(C)=CCCC(C)=CCCC(C)=CCCC(C)=CCCC(C)=CCCC(C)=CCCC(C)=CCCC(C)=CCCC(=O)O [Decaprenylacetic acid] |  | +++ (40%-) | 40 to 60 | > 4000 | > 4000 | 
CCCCCCCC/C=C/CCCCCCCC(=O)OCC=C(C)CCC=C(C)CCC=C(C)CCC=C(C)CCC=C(C)CCC=C(C)CCC=C(C)CCC=C(C)CCC=C(C)CCC=C(C)C [Decaprenyl elaidate] |  |  | 10 to 40 |  |  | > 5000
C=CC(C)(CCCC(C)CCCC(C)CCCC(C)C)OC(=O)CCCCCCC/C=C\CCCCCCCC (stereo not drawn) [Isophytyl oleate] |  | +++ (40%-) | > 60 | > 4000 | > 4000 | 
CC(C)=CCCC(C)=CCCC(C)=CCCC(=O)OCC=C(C)CCC=C(C)C [Gefarnate, 3,7-dimethyl-2,6-octadienyl-5,9,13-trimethyl-4,8,12-tetradecatrienoate, reference compound] |  | ± (-10%) | 10 to 40 |  |  | 
CCCCCCCC/C=C/CCCCCCCCCCCC(=O)OC/C=C(\C)CCC[C@H](C)CCC[C@H](C)CCCC(C)C [Phytyl brassidate] |  | ++ (25%-40%) | 10 to 40 | > 4000 | > 4000 | 
C=CC(C)(O)CCC=C(C)CCC=C(C)CCC=C(C)CCC=C(C)CCC=C(C)CCC=C(C)CCC=C(C)CCC=C(C)CCC=C(C)C (stereo not drawn) [Isodecaprenol] | > 4000 | ++ (25%-40%) | 10 to 40 |  |  | > 4000
CC(=CCCC(=O)Oc1c(C)c(C)c2c(c1C)CCC(C)(CCCC(C)CCCC(C)CCCC(C)C)O2)CCCC(C)CCCC(C)CCCC(C)C (stereo not drawn) [α-Tocopheryl phytylacetate] |  | +++ (40%-) | 10 to 40 | > 4000 | > 4000 | 
CC(C)=CCCC(C)=CCCC(C)=CCCC(C)=CCCC(C)=CCCC(C)=CCCC(C)=CCCC(C)=CCCC(C)=CCCC(C)=CCCC(=O)OCC=C(C)CCC=C(C)CCC=C(C)CCC=C(C)CCC=C(C)CCC=C(C)CCC=C(C)CCC=C(C)CCC=C(C)C [Solanesyl decaprenylacetate] |  |  | 10 to 40 |  |  | > 4000
CC(C)CCCC(C)CCCC(C)CCCC(C)CCCC(C)CCCC(C)CCCC(C)CCCC(C)CCCC(C)CCCC(C)CCO (stereo not drawn) [Saturated decaprenol] | > 5000 | ++ (25%-40%) | 10 to 40 |  |  | > 5000
CC(C)=CCCC(C)=CCCC(=O)Oc1c(C)c(C)c2c(c1C)CCC(C)(CCCC(C)CCCC(C)CCCC(C)C)O2 (stereo not drawn) [α-Tocopheryl geranylacetate] |  | + (10%-25%) | 40 to 60 | > 4000 | > 4000 | 
CC(C)=CCCC(C)CCCC(=O)OC/C=C(\C)CCC[C@H](C)CCC[C@H](C)CCCC(C)C (stereo partly drawn) [Phytyl citronellylacetate] |  |  | 10 to 40 |  |  | > 5000
CC(=O)OCC=C(C)CCC=C(C)CCC=C(C)CCC=C(C)CCC=C(C)CCC=C(C)CCC=C(C)CCC=C(C)CCC=C(C)C [Solanesyl acetate] |  |  | 40 to 60 |  |  | > 4000
CC(C)=CCCC(C)=CCCC(C)=CCCC(C)=CCCC(C)=CCCC(C)=CCCC(C)=CCCC(C)=CCCC(C)=CCCC(=O)OCC=C(C)CCC=C(C)CCC=C(C)CCC=C(C)CCC=C(C)CCC=C(C)CCC=C(C)CCC=C(C)CCC=C(C)C [Solanesyl solanesylacetate] |  |  | 10 to 40 |  |  | > 4000
CCCCCCCC/C=C\CCCCCCCC(=O)OCC=C(C)CCC=C(C)CCC=C(C)CCC=C(C)CCC=C(C)CCC=C(C)CCC=C(C)CCC=C(C)CCC=C(C)C [Solanesyl oleate] |  | ++ (25%-40%) | 10 to 40 | > 4000 | > 4000 | 
CCCCCCCCCCCCCCCC(=O)OC/C=C(\C)CCC[C@H](C)CCC[C@H](C)CCCC(C)C [Phytyl palmitate] |  |  | 40 to 60 |  |  | > 5000
CC(C)=CCC/C(C)=C/CCC(=O)OC/C=C(\C)CCC[C@H](C)CCC[C@H](C)CCCC(C)C [Phytyl geranylacetate] |  |  | 10 to 40 |  |  | > 5000
CCCCCCCC/C=C\CCCCCCCCCCCC(=O)OC/C=C(\C)CCC[C@H](C)CCC[C@H](C)CCCC(C)C [Phytyl erucate] |  |  | 10 to 40 |  |  | > 4000
CC(C)=CCCC(C)=CCCC(C)=CCCC(=O)Oc1c(C)c(C)c2c(c1C)CCC(C)(CCCC(C)CCCC(C)CCCC(C)C)O2 (stereo not drawn) [α-Tocopheryl farnesylacetate] |  | ++ (25%-40%) | 40 to 60 | > 4000 | > 4000 | 
